Experimental data from PMC4728427, “Mechanism of allosteric activation of TMEM16A/ANO1 channels by a commonly used chloride channel blocker” (British Journal of Pharmacology, 2016).

Tests used:
[1] = target: Xenopus laevis TMEM16A; conditions: +80 mV, ref Reyes et al. (2015); cited from earlier work
[2] = test system: non‐transfected HEK‐293T cells; test: Whole-cell endogenous currents in non-transfected cells with extracellular A9C; assay type: cell-based; conditions: +100 mV, 3000 μM [A9C]ext; without A9C 3.6 ± 0.8
Procedure: (§1) Current versus V m relationships were constructed by measuring currents in response to 1 s V m steps (test pulses) from −100 to +100 mV in 40 mV increments (unless stated otherwise) after a 1 s V m step to +70 mV (pre‐pulse). Pulses were elicited every 2 s from a holding V m of 0 mV. Steady‐state currents were measured at the end of the test pulses. As detailed in the Results, in the presence of 300 nM [Ca^2+]i and extracellular A9C, the test‐pulse currents reached a peak within the first ~50 ms of the test pulse. These peak currents were also measured and plotted against the V m of the test pulse. Current density was obtained by dividing the current amplitude for the cell capacitance.
To test the possibility that A9C activated endogenous currents in HEK‐293T cells, the effect of [A9C]ext (3000 μM) on non‐transfected cells was assessed. No significant increase in current was observed relative to the small endogenous currents measured in non‐transfected cells in the absence of [A9C]ext (Figure 1A). For example, at +100 mV, the current recorded from non‐transfected HEK‐293T cells in the absence and presence of 3000 μM [A9C]ext was 3.6 ± 0.8 pA∙pF^−1 (n = 6) and 3.7 ± 0.7 pA∙pF^−1 (n = 6) respectively.

[3] = target: human TMEM16A; design: method as in Bradley et al. (2014); conditions: +80 mV, ref Bradley et al. (2014); cited from earlier work
[4] = target: T1, Mouse TMEM16A (Mus musculus, UniProt Q8BHY3); test: Whole-cell TMEM16A current in the absence of [Ca2+]i; assay type: cell-based; conditions: 3000 μM extracellular A9C
T1 construct: expressed in transfected cells; host or cells: HEK-293T
T1 sequence (Q8BHY3 1-960): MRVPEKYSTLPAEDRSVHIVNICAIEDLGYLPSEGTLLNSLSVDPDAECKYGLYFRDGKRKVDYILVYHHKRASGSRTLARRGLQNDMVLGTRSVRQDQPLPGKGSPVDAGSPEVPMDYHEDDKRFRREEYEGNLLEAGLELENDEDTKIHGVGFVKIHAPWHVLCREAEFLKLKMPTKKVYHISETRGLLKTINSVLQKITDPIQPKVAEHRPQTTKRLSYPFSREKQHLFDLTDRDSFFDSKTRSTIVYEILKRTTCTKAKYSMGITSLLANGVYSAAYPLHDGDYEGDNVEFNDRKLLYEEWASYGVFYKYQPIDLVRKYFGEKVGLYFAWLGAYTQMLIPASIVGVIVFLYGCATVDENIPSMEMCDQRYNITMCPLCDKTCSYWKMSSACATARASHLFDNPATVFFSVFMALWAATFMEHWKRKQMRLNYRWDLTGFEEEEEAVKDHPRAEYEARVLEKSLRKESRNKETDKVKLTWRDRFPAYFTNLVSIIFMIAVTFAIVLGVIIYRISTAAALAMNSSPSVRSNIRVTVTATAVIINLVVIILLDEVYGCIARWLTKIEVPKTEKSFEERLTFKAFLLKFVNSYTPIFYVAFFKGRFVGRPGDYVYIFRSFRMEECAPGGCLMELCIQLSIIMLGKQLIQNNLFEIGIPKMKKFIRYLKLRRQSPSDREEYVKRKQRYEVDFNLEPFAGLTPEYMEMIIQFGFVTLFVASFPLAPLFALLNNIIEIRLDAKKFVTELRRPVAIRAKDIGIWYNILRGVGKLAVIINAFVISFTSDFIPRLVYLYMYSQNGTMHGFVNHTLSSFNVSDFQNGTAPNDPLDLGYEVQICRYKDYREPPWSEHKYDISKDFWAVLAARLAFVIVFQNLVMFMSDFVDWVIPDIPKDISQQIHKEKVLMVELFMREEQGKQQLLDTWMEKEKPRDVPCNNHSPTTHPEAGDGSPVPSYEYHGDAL
Procedure: as §1
The gating of TMEM16A channels is modulated by changes in [Ca^2+]i and V m. To study the effect of A9C on the intrinsic V m‐dependence of the channel, extracellular A9C (3000 μM) was applied during whole‐cell patch‐clamp in the absence of [Ca^2+]i (Figure 9). The stimulation protocol was similar to that used in Figure 1. However, because TMEM16A current in the absence of [Ca^2+]i are evident at V m greater than ~100 mV (Xiao et al., 2011), test pulses were elicited up to a value of +140 mV. Consistent with previous studies (Xiao et al., 2011), TMEM16A current in the absence of [Ca^2+]i appeared almost instantaneously in response to strong depolarizations (Figure 9). […]

[5] = target: T1, Mouse TMEM16A; test: Concentration jump in excised inside-out or outside-out patches, 300 nM [Ca2+]i; assay type: cell-based; conditions: +70 mV
Procedure: TMEM16A currents were measured with the whole‐cell or inside‐out patch configuration of the patch‐clamp technique as detailed in the Supporting Information. The exchange of solutions was achieved by using a local perfusion system consisting of eight tubes of 1.2 mm diameter in which the tip of the patch pipette was inserted. In some experiments, ultra‐rapid (<50 ms) changes in A9C concentration ([A9C]) (‘concentration jumps’) were achieved using a computer‐controlled perfusion system (Warner Instruments, Hamden, CT, USA).
To examine if intracellular A9C produced an activating effect on TMEM16A currents, concentration jump experiments were performed in the inside‐out configuration of the patch‐clamp technique, with A9C applied intracellularly and in the presence of 300 nM [Ca^2+]i. […] For example, I a/I 0 in the presence of 3000 μM intracellular A9C during inside‐out patches was 1.3 ± 0.1 (n = 5), while extracellular A9C produced a I a/I 0 of 27 ± 4 (n = 5) in outside‐out patches (Figure 6).

O=C(O)c1c2ccccc2cc2ccccc12 [A9C, Anthracene‐9‐carboxylic acid]
Ki [1]: ~90 µM
current density in non-transfected HEK-293T cells [2]: 3.7 ± 0.7 pA∙pF^−1
Ki [3]: ~60 µM
tail currents at negative Vm [4]: no large increase
TMEM16A current density ([4]; +140 mV, control 13.0 ± 4.0): 7.3 ± 3.8 pA∙pF^−1
I a/I 0 (current activation) ([5]; 3000 μM extracellular A9C, outside-out patches): 27 ± 4
I a/I 0 (current activation) ([5]; 3000 μM intracellular A9C, inside-out patches): 1.3 ± 0.1
